In patent publication US9242996B2 (Novartis AG, priority 2013, dated 2016):

The compounds below were run against activated ERK2 (Homo sapiens (Human), UniProt P28482) (assay: Activated ERK2 kinase assay, ERK2 New conditions (AlphaScreen, ERKtide phosphorylation)). Conditions: 0.25 nM ERK2, 200 nM ERKtide peptide, 35 μM ATP, 30 min preincubation.
Chain of activated ERK2 (P28482 whole entry): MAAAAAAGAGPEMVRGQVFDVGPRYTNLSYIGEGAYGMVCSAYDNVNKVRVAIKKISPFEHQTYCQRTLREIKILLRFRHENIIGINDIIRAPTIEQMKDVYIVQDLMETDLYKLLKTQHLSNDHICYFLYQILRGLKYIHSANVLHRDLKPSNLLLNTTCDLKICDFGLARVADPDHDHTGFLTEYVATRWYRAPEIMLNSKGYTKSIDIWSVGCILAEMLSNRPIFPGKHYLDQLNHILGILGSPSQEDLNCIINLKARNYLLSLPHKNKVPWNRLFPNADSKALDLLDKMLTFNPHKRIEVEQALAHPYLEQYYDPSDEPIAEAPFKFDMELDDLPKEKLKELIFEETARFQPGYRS
Type: biochemical
In short: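 0.25 nM ERK2 preincubated 30 min with compound, then reacted 2–3 h at ambient temperature with 200 nM ERKtide and 35 µM ATP (final) in HEPES pH 7.5 buffer. EDTA stop; phospho-peptide detected by AlphaScreen after overnight incubation; IC50 from four-parameter fit.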
Cn1cc(-c2cnc(N)c(-c3ccc(C(=O)NCc4cccc(S(C)(=O)=O)c4)c(F)c3)n2)cn1 [Example 147, 4-(3-amino-6-(1-methyl-1H-pyrazol-4-yl)pyrazin-2-yl)-2-fluoro-N-(3-(methylsulfonyl)benzyl)benzamide] gave an IC50 of 45.4 nM. Work on Cn1cc(-c2cnc(N)c(-c3ccc(C(=O)N[C@H](CO)c4ccccc4)c(F)c3)n2)cn1 [Example 148, (S)-4-(3-amino-6-(1-methyl-1H-pyrazol-4-yl)pyrazin-2-yl)-2-fluoro-N-(2-hydroxy-1-phenylethyl)benzamide] yielded an IC50 of 1.9 nM. Work on Cc1cc(-c2cc(-c3cnnn3C)cnc2N)ccc1C(=O)N[C@H](CO)c1cccc(Cl)c1 [Example 149, (S)-4-(2-amino-5-(1-methyl-1H-1,2,3-triazol-5-yl)pyridin-3-yl)-N-(1-(3-chlorophenyl)-2-hydroxyethyl)-2-methylbenzamide] yielded an IC50 of 0.149 nM. In the case of Cc1nn(C)cc1-c1cnc(N)c(-c2ccc(C(=O)N[C@H](CN)c3ccccc3)c(F)c2)c1 [Example 153, (S)-N-(2-amino-1-phenylethyl)-4-(2-amino-5-(1,3-dimethyl-1H-pyrazol-4-yl)pyridin-3-yl)-2-fluorobenzamide], the IC50 is reported as 0.38 nM. Cc1nn(C)c(C)c1-c1cnc(N)c(-c2ccc(C(=O)N[C@H](CO)c3cccc(Cl)c3)c(F)c2)c1 [Example 154, (S)-4-(2-amino 5-(1,3,5-trimethyl-1H-pyrazol-4-yl)pyridin-3-yl)-N-(1-(3-chlorophenyl)-2-hydroxyethyl)-2-fluorobenzamide] was tested, and the IC50 was 0.288 nM. With Cn1cc(-c2cnc(N)c(-c3ccc(C(=O)NC4CC4c4ccccc4)c(F)c3)n2)cn1 (centres unmarked) [Example 155, 4-(3-amino-6-(1-methyl-1H-pyrazol-4-yl)pyrazin-2-yl)-2-fluoro-N-(2-phenylcyclopropyl)benzamide] the IC50 was 1.89 nM. With Cc1noc(C)c1-c1cnc(N)c(-c2ccc(C(=O)N[C@H](CO)c3ccccc3)c(F)c2)n1 [Example 156, (S)-4-(3-amino-6-(3,5-dimethylisoxazol-4-yl)pyrazin-2-yl)-2-fluoro-N-(2-hydroxy-1-phenylethyl)benzamide] the IC50 was 3.32 nM. With Cc1oncc1-c1cnc(N)c(-c2ccc(C(=O)N[C@H](CO)c3ccccc3)c(F)c2)n1 [Example 157, (S)-4-(3-amino-6-(5-methylisoxazol-4-yl)pyrazin-2-yl)-2-fluoro-N-(2-hydroxy-1-phenylethyl)benzamide] the IC50 was 0.416 nM. Cc1oncc1-c1cnc(N)c(-c2ccc(C(=O)N[C@H](CO)c3ccccc3)c(F)c2)c1 [Example 158, (S)-4-(2-amino-5-(5-methylisoxazol-4-yl)pyridin-3-yl)-2-fluoro-N-(2-hydroxy-1-phenylethyl)benzamide] gave an IC50 of 0.634 nM. Compound Cn1cc(-c2cnc(N)c(-c3ccc(C(=O)N[C@H](CO)c4cccc(F)c4)c(F)c3)c2)c(C#N)n1 [Example 159, (S)-4-(2-amino-5-(3-cyano-1-methyl-1H-pyrazol-4-yl)pyridin-3-yl)-2-fluoro-N-(1-(3-fluorophenyl)-2-hydroxyethyl)benzamide] has an IC50 of 3.14 nM. Work on Cn1cc(-c2cnc(N)c(-c3ccc(C(=O)N[C@H](CO)c4cccc(Cl)c4)c(F)c3)c2)c(C#N)n1 [Example 160, (S)-4-(2-amino 5-(3-cyano-1-methyl-1H-pyrazol-4-yl)pyridin-3-yl)-N-(1-(3-chlorophenyl)-2-hydroxyethyl)-2-fluorobenzamide] yielded an IC50 of 0.653 nM. Work on Cc1ncc(-c2cnc(N)c(-c3ccc(C(=O)N[C@H](CO)c4ccccc4)c(F)c3)c2)n1C [Example 161, (S)-4-(2-amino-5-(1,2-dimethyl-1H-imidazol-5-yl)pyridin-3-yl)-2-fluoro-N-(2-hydroxy-1-phenylethyl)benzamide] yielded an IC50 of 5.78 nM. With Cc1ncc(-c2cnc(N)c(-c3ccc(C(=O)N[C@H](CO)c4cccc(F)c4)c(F)c3)c2)n1C [Example 163, (S)-4-(2-amino-5-(1,2-dimethyl-1H-imidazol-5-yl)pyridin-3-yl)-2-fluoro-N-(1-(3-fluorophenyl)-2-hydroxyethyl)benzamide] the IC50 was 5.14 nM. Work on Nc1ncc(-c2cnoc2)cc1-c1ccc(C(=O)N[C@H](CO)c2ccccc2)c(F)c1 [Example 164, (S)-4-(2-amino-5-(isoxazol-4-yl)pyridin-3-yl)-2-fluoro-N-(2-hydroxy-1-phenylethyl)benzamide] yielded an IC50 of 1.4 nM. Compound Cc1oncc1-c1cnc(N)c(-c2ccc(C(=O)N[C@H](CO)c3cccc(F)c3)c(F)c2)c1 [Example 165, (S)-4-(2-amino-5-(5-methylisoxazol-4-yl)pyridin-3-yl)-2-fluoro-N-(1-(3-fluorophenyl)-2-hydroxyethyl)benzamide] has an IC50 of 390 nM. Cn1cnnc1-c1cnc(N)c(-c2ccc(C(=O)N[C@H](CO)c3cccc(Cl)c3)c(F)c2)c1 [Example 167, (S)-4-(2-amino-5-(4-methyl-4H-1,2,4-triazol-3-yl)pyridin-3-yl)-N-(1-(3-chlorophenyl)-2-hydroxyethyl)-2-fluorobenzamide] was tested, and the IC50 was 0.998 nM. Cn1cc(-c2cnc(N)c(-c3ccc(C(=O)N[C@H](CO)c4ccccc4)c(F)c3)c2)c(C(F)(F)F)n1 [Example 168, (S)-4-(2-amino-5-(1-methyl-3-(trifluoromethyl)-1H-pyrazol-4-yl)pyridin-3-yl)-2-fluoro-N-(2-hydroxy-1-phenylethyl)benzamide] gave an IC50 of 5.13 nM. Cc1c(-c2cnc(N)c(-c3ccc(C(=O)N[C@H](CO)c4ccccc4)c(F)c3)c2)cnn1C [Example 170, (S)-4-(2-amino-5-(1,5-dimethyl-1H-pyrazol-4-yl)pyridin-3-yl)-2-fluoro-N-(2-hydroxy-1-phenylethyl)benzamide] was tested, and the IC50 was 1.58 nM. Work on COCCn1cc(-c2cnc(N)c(-c3ccc(C(=O)N[C@H](CO)c4ccccc4)c(F)c3)c2)cn1 [Example 171, (S)-4-(2-amino-5-(1-(2-methoxyethyl)-1H-pyrazol-4-yl)pyridin-3-yl)-2-fluoro-N-(2-hydroxy-1-phenylethyl)benzamide] yielded an IC50 of 1.09 nM. NC[C@@H](NC(=O)c1ccc(-c2nc(C3CCC(F)(F)CC3)cnc2N)cc1F)c1cccc(Cl)c1 [Example 197, (S)—N-(2-amino-1-(3-chlorophenyl)ethyl)-4-(3-amino-6-(4,4-difluorocyclohexyl)pyrazin-2-yl)-2-fluorobenzamide] gave an IC50 of 2.1 nM. Work on Nc1ncc([C@H]2CC[S@+]([O-])CC2)cc1-c1ccc(C(=O)N[C@H](CO)c2cccc(Cl)c2)c(F)c1 [Example 211, 4-(2-amino-5-((1S,4r)-1-oxidotetrahydro-2H-thiopyran-4-yl)pyridin-3-yl)-N—((S)-1-(3-chlorophenyl)-2-hydroxyethyl)-2-fluorobenzamide] yielded an IC50 of 5.44 nM. With Nc1ncc(C2CCSCC2)cc1-c1ccc(C(=O)N[C@H](CO)c2cccc(Cl)c2)c(F)c1 [Example 212, (S)-4-(2-amino-5-(tetrahydro-2H-thiopyran-4-yl)pyridin-3-yl)-N-(1-(3-chlorophenyl)-2-hydroxyethyl)-2-fluorobenzamide] the IC50 was 0.397 nM. Compound CS(=O)(=O)N1CCCC(c2cnc(N)c(-c3ccc(C(=O)N[C@H](CO)c4ccccc4)c(F)c3)n2)C1 (stereo partly drawn) [Example 213, 4-(3-amino-6-(1-(methylsulfonyl)piperidin-3-yl)pyrazin-2-yl)-2-fluoro-N—((S)-2-hydroxy-1-phenylethyl)benzamide] has an IC50 of 11.9 nM. COC(=O)N1CCCC(c2cnc(N)c(-c3ccc(C(=O)N[C@H](CO)c4ccccc4)c(F)c3)n2)C1 (stereo partly drawn) [Example 214, methyl 3-(5-amino-6-(3-fluoro-4-(((S)-2-hydroxy-1-phenylethyl)carbamoyl)phenyl)pyrazin-2-yl)piperidine-1-carboxylate] showed an IC50 of 13.4 nM. Work on CC(=O)N1CCCC(c2cnc(N)c(-c3ccc(C(=O)N[C@H](CO)c4ccccc4)c(F)c3)n2)C1 (stereo partly drawn) [Example 215, 4-(6-(1-acetylpiperidin-3-yl)-3-aminopyrazin-2-yl)-2-fluoro-N—((S)-2-hydroxy-1-phenylethyl)benzamide] yielded an IC50 of 28.5 nM. COC(=O)N1CCCC(c2cnc(N)c(-c3ccc(C(=O)N[C@H](CO)c4cccc(Cl)c4)c(F)c3)n2)C1 (stereo partly drawn) [Example 216, methyl 3-(5-amino-6-(4-(((S)-1-(3-chlorophenyl)-2-hydroxyethyl)carbamoyl)-3-fluorophenyl)pyrazin-2-yl)piperidine-1-carboxylate] gave an IC50 of 1.81 nM. CCn1cc(-c2cnc(N)c(-c3ccc(C(=O)N[C@H](CO)c4ccccc4)c(F)c3)n2)cn1 [Example 217, (S)-4-(3-amino-6-(1-ethyl-1H-pyrazol-4-yl)pyrazin-2-yl)-2-fluoro-N-(2-hydroxy-1-phenylethyl) benzamide] showed an IC50 of 1.13 nM. Nc1ncc(C2CNC(=O)C2)cc1-c1ccc(C(=O)N[C@H](CO)c2ccccc2)c(F)c1 (stereo partly drawn) [Example 218, 4-(2-amino-5-(5-oxopyrrolidin-3-yl)pyridin-3-yl)-2-fluoro-N—((S)-2-hydroxy-1-phenylethyl)benzamide] showed an IC50 of 24.2 nM. Nc1ncc([C@@H]2CNC(=O)C2)cc1-c1ccc(C(=O)N[C@H](CO)c2ccccc2)c(F)c1 [Example 219, 4-(2-amino-5-((R)-5-oxopyrrolidin-3-yl)pyridin-3-yl)-2-fluoro-N—((S)-2-hydroxy-1-phenylethyl)benzamide] showed an IC50 of 32.7 nM. With Nc1ncc([C@H]2CNC(=O)C2)cc1-c1ccc(C(=O)N[C@H](CO)c2ccccc2)c(F)c1 [Example 220, 4-(2-amino-5-((S)-5-oxopyrrolidin-3-yl)pyridin-3-yl)-2-fluoro-N—((S)-2-hydroxy-1-phenylethyl)benzamide] the IC50 was 72.3 nM. For COC(=O)[C@@H]1C[C@H](c2cnc(N)c(-c3ccc(C(=O)N[C@H](CO)c4cccc(Cl)c4)c(F)c3)c2)CN1 [Example 221, (2S,4R)-methyl 4-(6-amino-5-(4-(((S)-1-(3-chlorophenyl)-2-hydroxyethyl)carbamoyl)-3-fluorophenyl)pyridin-3-yl)pyrrolidine-2-carboxylate], the IC50 was 30.6 nM. With Nc1ncc([C@@H]2CN[C@H](C(=O)O)C2)cc1-c1ccc(C(=O)N[C@H](CO)c2cccc(Cl)c2)c(F)c1 [Example 222, (2S,4R)-4-(6-amino-5-(4-(((S)-1-(3-chlorophenyl)-2-hydroxyethyl)carbamoyl)-3-fluorophenyl)pyridin-3-yl)pyrrolidine-2-carboxylic acid] the IC50 was 24.8 nM.
